{
  "source": "paper PMC4973094",
  "about": "“Anti-cholinesterases and memory improving effects of Vietnamese Xylia xylocarpa” (Chemistry Central Journal, 2016)",
  "key": {"[1]": {"target": "T1, butyrylcholinesterase (BChE) (EC 3.1.1.8) (Homo sapiens, UniProt P06276)", "T1 construct": "purchased Sigma-Aldrich Pte Ltd (Nucleos, Singapore)", "T1 sequence (P06276 29-602, species assumed)": "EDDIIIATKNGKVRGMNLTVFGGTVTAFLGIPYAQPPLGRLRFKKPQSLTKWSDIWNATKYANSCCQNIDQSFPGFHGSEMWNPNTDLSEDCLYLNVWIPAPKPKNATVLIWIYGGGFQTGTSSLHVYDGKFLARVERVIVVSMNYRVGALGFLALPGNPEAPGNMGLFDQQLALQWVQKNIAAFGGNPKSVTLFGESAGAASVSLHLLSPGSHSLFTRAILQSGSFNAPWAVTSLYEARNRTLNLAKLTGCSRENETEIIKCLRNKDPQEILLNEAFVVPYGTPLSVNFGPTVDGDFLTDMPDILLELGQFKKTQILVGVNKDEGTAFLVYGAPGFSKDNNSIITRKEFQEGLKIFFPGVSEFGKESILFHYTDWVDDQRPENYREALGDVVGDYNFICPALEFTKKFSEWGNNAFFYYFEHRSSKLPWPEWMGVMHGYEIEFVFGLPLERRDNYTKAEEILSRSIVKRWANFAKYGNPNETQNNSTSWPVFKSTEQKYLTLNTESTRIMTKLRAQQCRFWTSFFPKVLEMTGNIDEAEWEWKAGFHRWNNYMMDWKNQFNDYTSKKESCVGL", "test": "BChE inhibition assay (modified Ellman's method)", "type": "biochemical", "conditions": "average of 3 replicates ± SD; substrate butyrylthiocholine, pH 8.0", "procedure": "(§1) Male Swiss mice (age, 8 weeks; weight, 25–27 g) were purchased from Military Medical University (Hanoi, Vietnam) and housed in a regulated environment (21 ± 2 °C, 12 h light/dark cycle, light period starting at 7 AM) with free access to food and water. Acetylcholinesterase (AChE) (EC 3.1.1.7), butyrylcholinesterase (BChE) (EC 3.1.1.8) and scopolamine hydrobromide (>98 %) were obtained from Sigma-Aldrich Pte Ltd (Nucleos, Singapore). […] Other chemicals were of the highest grade available.\n(§2) The inhibitory activities of the ChEs were measured using a modified Ellman’s method. Acetylthiocholine and butyrylthiocholine were used as substrates to examine the inhibitory effect of sample on the AChE and BChE action, respectively. The reaction mixture contained: 140 μL of sodium phosphate buffer (pH 8.0); 20 μL of tested sample solution; and 20 µL of either AChE or BChE solution (5 units/mL), which were mixed and incubated at room temperature for 15 min. The reactions were initiated by the addition of 10 µL of dithiobisnitrobenzoate (DTNB) and 10 μL of either acetylthiocholine or butyrylthiocholine, respectively. The hydrolysis of AChE or BChE was monitored at 412 nm based on the formation of yellow 5-thio-2-nitrobenzoate anion from the reaction of DTNB with thiocholine, which was released by enzymatic hydrolysis of either AChE or BChE. […] The reaction was performed in triplicate and recorded in 96-well microplates using a microplate reader (VersaMax ELISA, USA). Percent inhibition was calculated from (1–S/E) × 100, where E and S were the enzyme activities […] the tested sample, respectively."}, "[2]": {"target": "T2, Acetylcholinesterase (AChE) (EC 3.1.1.7) (Homo sapiens, UniProt P22303)", "T2 construct": "purchased Sigma-Aldrich Pte Ltd (Nucleos, Singapore)", "T2 sequence (P22303 32-614)": "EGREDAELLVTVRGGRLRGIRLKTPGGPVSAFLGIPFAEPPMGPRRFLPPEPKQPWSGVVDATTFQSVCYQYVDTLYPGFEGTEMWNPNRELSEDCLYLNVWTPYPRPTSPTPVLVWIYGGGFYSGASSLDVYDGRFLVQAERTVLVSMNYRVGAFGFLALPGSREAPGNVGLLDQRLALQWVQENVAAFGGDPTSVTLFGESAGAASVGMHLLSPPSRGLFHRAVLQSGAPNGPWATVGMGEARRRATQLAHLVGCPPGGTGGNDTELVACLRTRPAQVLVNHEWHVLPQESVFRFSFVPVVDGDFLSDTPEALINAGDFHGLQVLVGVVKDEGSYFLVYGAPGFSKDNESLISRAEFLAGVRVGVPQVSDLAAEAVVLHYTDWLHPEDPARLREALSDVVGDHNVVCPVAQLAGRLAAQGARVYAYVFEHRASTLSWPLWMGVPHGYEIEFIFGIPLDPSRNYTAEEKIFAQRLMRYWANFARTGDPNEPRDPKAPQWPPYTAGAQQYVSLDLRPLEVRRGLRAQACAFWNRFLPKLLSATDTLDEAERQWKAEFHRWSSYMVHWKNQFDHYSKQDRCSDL", "test": "AChE inhibition assay (modified Ellman's method)", "type": "biochemical", "procedure": "as §1, §2"}, "[3]": {"test_system": "scopolamine-induced memory deficit in mice", "test": "Y-maze test, scopolamine-induced memory impairment", "type": "in vivo, male Swiss mice", "conditions": "scopolamine 1.5 mg/kg i.p. alone; versus vehicle-treated control group, P < 0.001"}, "[4]": {"test_system": "scopolamine-induced memory deficit in mice", "test": "Morris water maze test, scopolamine-induced memory dysfunction", "type": "in vivo, male Swiss mice", "conditions": "scopolamine 1.5 mg/kg i.p. alone, versus vehicle-treated controls"}, "[5]": {"test_system": "scopolamine-induced memory deficit in mice", "test": "Object recognition test, scopolamine-induced recognition impairment", "type": "in vivo, male Swiss mice", "conditions": "scopolamine 1.5 mg/kg i.p. alone"}, "[6]": {"conditions": "days 3 to 7, P < 0.01 and P < 0.001"}},
  "note": "Where a name gives a salt, the structure may show the parent alone. Read-outs that look alike come from different tables or passages of the source.",
  "data": [
    {"smiles": "CC1(C)OC(=O)C23CCC1C2CCC1(C)C3CCC2C3(C)CCC(O)C(C)(C)C3CCC21C", "note": "(stereo not drawn) [Compound 1, (3β)-hopan-3-ol-28,22-olide]", "values": [
      {"measurement": "IC50", "setting": "[1]", "value": "> 100", "unit": "µM"},
      {"measurement": "IC50", "setting": "[2]", "value": "79.5 ± 1.1", "unit": "µM"}
    ]},
    {"smiles": "C=C(C)[C@@H]1CC[C@]2(C)CC[C@]3(C)[C@H](CC[C@@H]4[C@@]5(C)CC[C@H](O)C(C)(C)[C@@H]5CC[C@]43C)[C@@H]12", "note": "[Compound 2, lupeol]", "values": [
      {"measurement": "IC50", "setting": "[1]", "value": "> 100", "unit": "µM"},
      {"measurement": "IC50", "setting": "[2]", "value": "75.7 ± 3.1", "unit": "µM"}
    ]},
    {"smiles": "C=C(C)[C@@H]1CC[C@]2(O)CC[C@]3(C)C(CCC4[C@@]5(C)CC[C@H](O)C(C)(C)C5CC[C@]43C)C12", "note": "(stereo partly drawn) [Compound 3, 28-norlup-20(29)-ene-3β,17β-diol]", "values": [
      {"measurement": "IC50", "setting": "[1]", "value": "> 100", "unit": "µM"},
      {"measurement": "IC50", "setting": "[2]", "value": "> 100", "unit": "µM"}
    ]},
    {"smiles": "C=C(C)[C@@H]1CC[C@]2(CO)CC[C@]3(C)[C@H](CC[C@@H]4[C@@]5(C)CC[C@H](O)C(C)(C)[C@@H]5CC[C@]43C)[C@@H]12", "note": "[Compound 4, betulin]", "values": [
      {"measurement": "IC50", "setting": "[2]", "value": "93.4 ± 2.2", "unit": "µM"}
    ]},
    {"smiles": "C=C(C)[C@@H]1CC[C@]2(OO)CC[C@]3(C)C(CCC4[C@@]5(C)CC[C@H](O)C(C)(C)C5CC[C@]43C)C12", "note": "(stereo partly drawn) [Compound 5, 28-norlup-20(29)-ene-3β-hydroxy-17β-hydroperoxide]", "values": [
      {"measurement": "IC50", "setting": "[1]", "value": "> 100", "unit": "µM"},
      {"measurement": "IC50", "setting": "[2]", "value": "83.9 ± 0.6", "unit": "µM"}
    ]},
    {"smiles": "C=C(C)[C@@H]1CC[C@]2(C(=O)O)CC[C@]3(C)[C@H](CC[C@@H]4[C@@]5(C)CC[C@H](O)C(C)(C)[C@@H]5CC[C@]43C)[C@@H]12", "note": "[Compound 7, betulinic acid]", "values": [
      {"measurement": "IC50", "setting": "[2]", "value": "62 ± 2.2", "unit": "µM"}
    ]},
    {"smiles": "C=C(C)[C@@H]1CC[C@]2(C(=O)O)CC[C@]3(C)C(CCC4[C@@]5(C)CCC(=O)C(C)(C)C5CC[C@]43C)C12", "note": "(some centres unmarked) [Compound 8, betulonic acid]", "values": [
      {"measurement": "IC50", "setting": "[1]", "value": "> 100", "unit": "µM"},
      {"measurement": "IC50", "setting": "[2]; read-out: IC50 AChE, average of 3 replicates ± SD, substrate acetylthiocholine, pH 8.0", "value": "94.6 ± 1.5", "unit": "µM"}
    ]},
    {"smiles": "CC1(C)CC[C@]23CC[C@]4(C)C(CCC5[C@@]6(C)CC[C@H](O)C(C)(C)C6CC[C@]54C)C2[C@H]1OC3=O", "note": "(stereo partly drawn) [Compound 10, 3β-hydroxy-18α-olean-28,19β-olide]", "values": [
      {"measurement": "IC50", "setting": "[2]", "value": "> 100", "unit": "µM"}
    ]},
    {"smiles": "CC1(C)CC[C@]23CC[C@]4(C)C(CCC5[C@@]6(C)CC[C@H](OC=O)C(C)(C)C6CC[C@]54C)C2[C@H]1OC3=O", "note": "(stereo partly drawn) [Compound 11, 3β-formyloxy-l8α-oleanano-28,19β-lactone]", "values": [
      {"measurement": "IC50", "setting": "[1]", "value": "> 100", "unit": "µM"},
      {"measurement": "IC50", "setting": "[2]", "value": "86.5 ± 0.6", "unit": "µM"}
    ]},
    {"smiles": "Cc1cc(O)c2c(c1)C(=O)c1cccc(O)c1C2=O", "note": "[Compound 12, chrysophanol]", "values": [
      {"measurement": "IC50", "setting": "[1]", "value": "> 100", "unit": "µM"},
      {"measurement": "IC50", "setting": "[2]", "value": "77.3 ± 0.8", "unit": "µM"}
    ]},
    {"smiles": "COC1=CC(=O)C=C(OC)C1=O", "note": "[Compound 13, 2,6-dimethoxyl-p-benzoquinone]", "values": [
      {"measurement": "IC50", "setting": "[1]", "value": "42.7 ± 7.6", "unit": "µM"},
      {"measurement": "IC50", "setting": "[2]", "value": "54.4 ± 3.4", "unit": "µM"}
    ]},
    {"smiles": "COc1cc(/C=C/C(=O)O)ccc1O", "note": "[Compound 14, ferulic acid]", "values": [
      {"measurement": "IC50", "setting": "[1]", "value": "> 100", "unit": "µM"},
      {"measurement": "IC50", "setting": "[2]", "value": "> 100", "unit": "µM"}
    ]},
    {"smiles": "COC(=O)/C=C/c1ccc(O)c(OC)c1", "note": "[Compound 15, methyl ferulate]", "values": [
      {"measurement": "IC50", "setting": "[2]", "value": "> 100", "unit": "µM"}
    ]},
    {"smiles": "COC(=O)C(Cc1ccc(O)cc1)C(=O)OC", "note": "[Compound 16, methyl 3-(4-hydroxyphenyl)-2-methoxycarbonylpropionate]", "values": [
      {"measurement": "IC50", "setting": "[1]", "value": "> 100", "unit": "µM"},
      {"measurement": "IC50", "setting": "[2]", "value": "> 100", "unit": "µM"}
    ]},
    {"smiles": "O=C(O)c1ccc(O)c(O)c1", "note": "[Compound 17, protocatechuic acid]", "values": [
      {"measurement": "IC50", "setting": "[2]", "value": "> 100", "unit": "µM"}
    ]},
    {"smiles": "COc1cc(C(=O)O)ccc1O", "note": "[Compound 18, vanillic acid]", "values": [
      {"measurement": "IC50", "setting": "[1]", "value": "> 100", "unit": "µM"},
      {"measurement": "IC50", "setting": "[2]", "value": "> 100", "unit": "µM"}
    ]},
    {"smiles": "COc1cc(C=O)ccc1O", "note": "[Compound 19, vanillin]", "values": [
      {"measurement": "IC50", "setting": "[2]", "value": "> 100", "unit": "µM"}
    ]},
    {"smiles": "COC(=O)c1cc(O)c(O)c(O)c1", "note": "[Compound 20, methyl gallate]", "values": [
      {"measurement": "IC50", "setting": "[2]", "value": "> 100", "unit": "µM"}
    ]},
    {"smiles": "COc1cc(C(=O)O)cc(OC)c1O", "note": "[Compound 21, syringic acid]", "values": [
      {"measurement": "IC50", "setting": "[2]", "value": "> 100", "unit": "µM"}
    ]},
    {"smiles": "CN1[C@@H]2C[C@@H](OC(=O)[C@H](CO)c3ccccc3)C[C@H]1[C@@H]1O[C@@H]12", "note": "[scopolamine, scopolamine hydrobromide]", "values": [
      {"measurement": "Spontaneous alternation (%) in Y-maze", "setting": "[3]", "value": "significantly lower"},
      {"measurement": "Time in the target quadrant, probe trial day 8, Morris water maze", "setting": "[4]; P < 0.05", "value": "significantly reduced"},
      {"measurement": "Escape latencies, training trials, Morris water maze", "setting": "[4]; [6]", "value": "longer"},
      {"measurement": "Swimming distances, training trials, Morris water maze", "setting": "[4]; [6]", "value": "longer"},
      {"measurement": "Time exploring new versus familiar object, test phase, object recognition test", "setting": "[5]", "value": "no total time difference between familiar and new objects"}
    ]}
  ]
}
